Reference: patent US8207178B2 (priority 2007, dated 2012)

Experiments:
Test in all cases: microbe, parasite or virus in culture
Type in all cases: cell-based, human immunodeficiency virus type 1 (HIV-1)
HIV-1 K103N mutant = conditions: Human immunodeficiency virus 1, HeLa, read-out: EC50 mutant K103N
wild type HIV-1 = conditions: Human immunodeficiency virus 1, Hela-JC53
HIV-1 Y188L mutant = conditions: Human immunodeficiency virus 1, HeLa, read-out: EC50 mutant Y188L
HIV-1 K103N-L100I mutant = conditions: Human immunodeficiency virus 1, HeLa, read-out: EC50 mutant K103N-L100I, mutant K103N-L100I
HIV-1 K103N-Y181C mutant = conditions: Human immunodeficiency virus 1, HeLa, read-out: EC50 mutant K103N-Y181C

Compound | EC50 (HIV-1 K103N mutant) | EC50 (wild type HIV-1) | EC50 (HIV-1 Y188L mutant) | EC50 (HIV-1 K103N-L100I mutant) | EC50 (HIV-1 K103N-Y181C mutant)
Cc1cc(-c2ccncc2)cc(C)c1Oc1nc(Nc2ccc(C#N)cc2)nc2ccn(C)c12 [Example 1, 4-(4-(2,6-Dimethyl-4-(pyridin-4-yl)phenoxy)-5-methyl-5H-pyrrolo[3,2-d]pyrimidin-2-ylamino)benzonitrile] | < 1 nM | 1 to 10 nM | 1 to 10 nM | 1 to 10 nM | 1 to 10 nM
Cc1cc(-c2ccc(S(N)(=O)=O)cc2)cc(C)c1Oc1nc(Nc2ccc(C#N)cc2)nc2nc[nH]c12 [Example 46, 4′-(2-(4-Cyanophenylamino)-7H-purin-6-yloxy)-3′,5′-dimethylbiphenyl-4-sulfonamide] | 1 to 10 nM | 1 to 10 nM | > 10 nM | > 10 nM | 1 to 10 nM
Cc1cc(-c2ccnc(C#N)c2)cc(C)c1Oc1nc(Nc2ccc(C#N)cc2)nc2ccn(C)c12 [Example 6, 4-(4-(2-(4-Cyanophenylamino)-5-methyl-5H-pyrrolo[3,2-d]pyrimidin-4-yloxy)-3,5-dimethylphenyl)picolinonitrile] | 1 to 10 nM | 1 to 10 nM | > 10 nM | 1 to 10 nM | > 10 nM
Cc1cc(-c2cccc(C#N)c2)cc(C)c1Oc1nc(Nc2ccc(C#N)cc2)nc2ccn(C)c12 [Example 16, 4′-(2-(4-Cyanophenylamino)-5-methyl-5H-pyrrolo[3,2-d]pyrimidin-4-yloxy)-3′,5′-dimethylbiphenyl-3-carbonitrile] | > 10 nM | 1 to 10 nM | > 10 nM | > 10 nM | > 10 nM
Cc1cc(-c2ccc(C(N)=O)cc2)cc(C)c1Oc1nc(Nc2ccc(C#N)cc2)nc2ccn(C)c12 [Example 78, 4′-(2-(4-cyanophenylamino)-5-methyl-5H-pyrrolo[3,2-d]pyrimidin-4-yloxy)-3′,5′-dimethylbiphenyl-4-carboxamide] | 1 to 10 nM | 1 to 10 nM | 1 to 10 nM | 1 to 10 nM | 1 to 10 nM
Cc1cc(-c2cccc(C#N)n2)cc(C)c1Oc1nc(Nc2ccc(C#N)cc2)nc2ccn(C)c12 [Example 17, 6-(4-(2-(4-Cyanophenylamino)-5-methyl-5H-pyrrolo[3,2-d]pyrimidin-4-yloxy)-3,5-dimethylphenyl)picolinonitrile] | 1 to 10 nM | 1 to 10 nM | > 10 nM | 1 to 10 nM | > 10 nM
Cc1cc(-c2ccc(C(N)=O)cn2)cc(C)c1Oc1nc(Nc2ccc(C#N)cc2)nc2ccn(C)c12 [Example 61, 6-(4-(2-(4-Cyanophenylamino)-5-methyl-5H-pyrrolo[3,2-d]pyrimidin-4-yloxy)-3,5-dimethyl-phenyl)nicotinamide] | 1 to 10 nM | 1 to 10 nM | 1 to 10 nM | 1 to 10 nM | > 10 nM
Cc1cnccc1-c1cc(C)c(Oc2nc(Nc3ccc(C#N)cc3)nc3ccn(C)c23)c(C)c1 [Example 7, 4-(4-(2,6-Dimethyl-4-(3-methylpyridin-4-yl)phenoxy)-5-methyl-5H-pyrrolo [3,2-d]pyrmidin-2-ylamino)benzonitrile] | 1 to 10 nM | 1 to 10 nM | > 10 nM | 1 to 10 nM | 1 to 10 nM
